Laboratory results reported in PubChem BioAssay (NCI).
Where “and” joins values, the source holds several entries; their conditions need not be identical. Identical values can stand only once.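 Test compounds were applied to cells in 96-well plates for 48 hours at 5 doses. Here, GI50 denotes the concentration required for 50% inhibition of growth. TGI denotes the concentration required for complete inhibition of growth.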

System: MDA-MB-468 breast
Test: inhibition of tumour cell growth, NCI panel, 48 h

## CC1(C)CCC(S(=O)(=O)c2ccc3c(c2)/C(=N\O)c2cc(S(=O)(=O)N4CCC(O)(c5cccc(C(F)(F)F)c5)CC4)ccc2-3)CC1
  GI50: 17.6 nM
  TGI: 0.0356 µM

## OCCN1CCN(CCCN2c3ccccc3Sc3ccc(C(F)(F)F)cc32)CC1
  GI50: 827 nM and 3630 nM and 2630 nM
  TGI: 2.08 µM and 15.4 µM and 11.3 µM

## COc1ccc(-c2nc(-c3nc4ccc(F)cc4[nH]3)cc3c2[nH]c2ccccc23)cc1
  GI50: 2080 nM
  TGI: > 100 µM

## CN(C(=O)c1ccc(F)cc1C(F)(F)F)C1CCN(c2nnc(-c3ccnn3C)c3ccccc23)CC1
  GI50: 7100 nM
  TGI: 61.4 µM

## O=C(NCc1cn(Cc2cccc(Oc3ccccc3)c2)nn1)c1cccnc1Nc1ccccc1
  GI50: 2880 nM
  TGI: 57.4 µM

## O=C(CC12CC3CC(CC(C3)C1)C2)NCCOCCOCCNC(=O)c1cc2c(o1)C(=O)c1ccccc1C2=O
  GI50: 1210 nM
  TGI: 3.3 µM

## CN1CCN(c2ccc(Nc3nc(NCCCNS(=O)(=O)c4cccc5ccccc45)c4sccc4n3)cc2)CC1
  GI50: 2100 nM
  TGI: 6.23 µM

## COc1ccc(/C=C2/CN(C(=O)c3ccccc3F)C/C(=C\c3ccc(OC)cc3)C2=O)cc1
  GI50: 1910 nM
  TGI: 4.49 µM

## COc1ccc2c(c1)O/C(=C\c1cccc(OCC(=O)Nc3nc4ccccc4s3)c1)C2=O
  GI50: 6040 nM
  TGI: > 100 µM

## O=C1C(=O)c2ccc(Br)cc2-c2cc(Br)ccc21
  GI50: 604 nM
  TGI: 1.43 µM

## CS(=O)(=O)c1nccc(-c2c(-c3cccc(OCc4ccc(F)cc4)c3)nc3sccn23)n1
  GI50: 1990 nM
  TGI: 3.98 µM

## O=C1Nc2ccc(Cl)cc2/C1=C\c1c(-c2ccc(F)cc2)nc2ccccn12
  GI50: 2080 nM
  TGI: 6.19 µM

## CCCC[C@@H]1NC(=O)[C@H](CCCCN)NC(=O)[C@H](CCCNC(=N)N)NC(=O)[C@H](CC(C)C)NC(=O)[C@@H](NC(=O)[C@H](Cc2cccc(Cl)c2)NC(=O)[C@@H]2CCCN2C(=O)[C@@H](NC(C)=O)C(C)C)CCSSC[C@@H](C(=O)N[C@@H](CCCCN)C(=O)N2CCC[C@H]2C(=O)N2CCC[C@H]2C(=O)N[C@@H](CCC(=O)O)C(N)=O)NC(=O)[C@H](Cc2ccccc2)NC(=O)[C@H](CO)NC(=O)[C@H](C)NC(=O)[C@@H]2CCCN2C1=O
  GI50: > 50000 nM
  TGI: > 50 µM

## Cn1cc(-c2cc3c(Nc4ccc(CC(=O)Nc5cc(C(C)(C)C)on5)cc4)ncnc3[nH]2)cn1
  GI50: 325 nM and 242 nM
  TGI: 1.08 µM and 0.737 µM

## c1ccc2c(c1)O[As](O[As]1Oc3ccccc3O1)O2
  GI50: 1250 nM
  TGI: 4.04 µM

## C[C@@H]1O[C@@H](O[C@H]2C[C@@H](O)[C@]3(CO)C4C(CC[C@]3(O)C2)[C@@]2(O)CC[C@H](C3=CC(=O)OC3)[C@@]2(C)C[C@H]4O)[C@H](O)[C@H](O)[C@H]1O (some centres not stated)
  GI50: 84.1 nM
  TGI: 0.187 µM
